# From patent US20180071296A1, “COMBINATION THERAPY COMPRISING AN INHIBITOR OF JAK, CDK, AND PIM” (Novartis AG, priority 2013, published 2018)
# Columns and labels:
# Type in all cases: in vivo
# [1] = system: Ba/F3-EpoR-JAK2^V617F cells; test: Spleen weight at study endpoint in mouse MPN model
# Method: (§1) The combination of Compound A, Compound B and Compound C was examined in a mouse model of MPN. In this model, Ba/F3 cells harbored Epo Receptor and JAK2 V617F mutations. Ba/F3-EpoR-JAK2^V617F was engineered with a luciferase tag for experimental imaging. Female SCID/Beige mice were inoculated with 1x10e6 Ba/F3-EpoR-JAK2^V617F cells through the tail vein. […] Additionally, JAK2V617F allele burden, defined as the relative ratio of JAK2V617F over wild type JAK2, is measured by taqman in PBMCs at study endpoint.
# (§2) In the first experiment, disease-bearing mice were randomized into treatment cohorts, based on the disease burden. Mice were treated with vehicle, Compound B at 75 mg/kg, by oral gavage (PO) daily (QD), Compound A at 60 mg/kg, PO, twice daily (BID) and the combination of both agents. At study endpoint, spleen weight from each of the study cohorts was obtained. Relative change in the spleen weight was calculated by normalizing individual spleen weight against the mean spleen weight of the cohort receiving vehicle treatment.
# In the second experiment, disease-bearing mice were randomized into treatment cohort, based on the disease burden. Mice were treated with vehicle, Compound A at 60 mg/kg, PO, twice daily (BID), and the triple combination of Compound A, Compound B (at 75 mg/kg, QD, PO) and Compound C (at 25 mg/kg, QD, PO). At study endpoint, spleen weight from each of the study cohorts was obtained. Relative spleen weight was calculated by normalizing individual spleen weight against the mean spleen weight of the cohort receiving vehicle treatment.
# [2] = system: Ba/F3-EpoR-JAK2^V617F cells; test: Total tumor load (bioluminescence, IVIS xenogen) in mouse MPN model; conditions: study endpoint; for reduction of total tumor load (level of bioluminescence) relative to the vehicle control: first experiment, FIG. 1, Compound A 60 mg/kg PO BID, Compound B 75 mg/kg PO QD, alone or combined, SCID/Beige mice
# From the text: The combination of Compound A, Compound B and Compound C was examined in a mouse model of MPN. In this model, Ba/F3 cells harbored Epo Receptor and JAK2 V617F mutations. Ba/F3-EpoR-JAK2^V617F was engineered with a luciferase tag for experimental imaging. Female SCID/Beige mice were inoculated with 1x10e6 Ba/F3-EpoR-JAK2^V617F cells through the tail vein. Total tumor load was monitored with IVIS xenogen technology. It is defined as the sum of dorsal and ventral photon signal.
# In the first experiment, disease-bearing mice were randomized into treatment cohorts, based on the disease burden. Mice were treated with vehicle, Compound B at 75 mg/kg, by oral gavage (PO) daily (QD), Compound A at 60 mg/kg, PO, twice daily (BID) and the combination of both agents.
# In the second experiment, disease-bearing mice were randomized into treatment cohort, based on the disease burden. Mice were treated with vehicle, Compound A at 60 mg/kg, PO, twice daily (BID), and the triple combination of Compound A, Compound B (at 75 mg/kg, QD, PO) and Compound C (at 25 mg/kg, QD, PO).
# JAK2V617F allele burden = JAK2V617F allele burden in PBMC (taqman) at study endpoint in mouse MPN model; conditions: second experiment, FIG. 6, Compound A 60 mg/kg PO BID alone or with Compound B 75 mg/kg QD PO and Compound C 25 mg/kg QD PO
# Method: as §1, §2
# In the second experiment, disease-bearing mice were randomized into treatment cohort, based on the disease burden. […] Relative spleen weight was calculated by normalizing individual spleen weight against the mean spleen weight of the cohort receiving vehicle treatment.
# [3] = first experiment, FIG. 2, Compound A 60 mg/kg PO BID, Compound B 75 mg/kg PO QD, alone or combined
Structure (SMILES),"reduction of spleen weight relative to that of the vehicle control [1, 3]","reduction of spleen weight relative to that of the vehicle control ([1]; second experiment, FIG. 5, Compound A 60 mg/kg PO BID alone or with Compound B 75 mg/kg QD PO and Compound C 25 mg/kg QD PO)",reduction of total tumor load (level of bioluminescence) relative to the vehicle control [2],"reduction of total tumor load (level of bioluminescence) ([2]; second experiment, FIG. 4, Compound A 60 mg/kg PO BID alone or with Compound B 75 mg/kg QD PO and Compound C 25 mg/kg QD PO)",down-modulation of JAK2V617F allele burden (JAK2V617F allele burden)
"N#CC[C@H](C1CCCC1)n1cc(-c2ncnc3[nH]ccc23)cn1 [Compound A, (3R)-3-cyclopentyl-3-[4-(7H-pyrrolo[2,3-d]pyrimidin-4-yl)pyrazol-1-yl]propanenitrile]",~62%,~53%,~79%,~70%,~15%
"CN(C)C(=O)c1cc2cnc(Nc3ccc(N4CCNCC4)cn3)nc2n1C1CCCC1 [Compound B, 7-Cyclopentyl-2-(5-piperazin-1-yl-pyridin-2-ylamino)-7H-pyrrolo[2,3-d]pyrimidine-6-carboxylic acid dimethylamide]",~38%,,~77%,,
